This is an account of results in ChEMBL document CHEMBL3352341, “Design, synthesis and biological characterization of thiazolidin-4-one derivatives as promising inhibitors of Toxoplasma gondii” (Eur J Med Chem, 2014).

For data set [1], the system named is Toxoplasma gondii. Kind of data set: Antiparasitic activity against Toxoplasma gondii infected in human foreskin fibroblasts assessed as inhibition of replication measured as decrease in the number of tachyzoites in vacuole at 10 uM after 24 hrs by fluorescence assay. It counts as functional, organism-based.
Data set [2] in a line: Therapeutic index, ratio of TD50 for human foreskin fibroblasts to IC50 for Toxoplasma gondii infected in human foreskin fibroblasts. The conditions noted are these: read-out: TI.
The nature of data set [3]: Cytotoxicity against human foreskin fibroblasts after 5 days by colorimetric assay. The format is cell-based. As to conditions: human foreskin fibroblasts (HFF cells), read-out: TD50.
In data set [4] the test system is Toxoplasma gondii. Kind of data set: Antiparasitic activity against Toxoplasma gondii infected in human foreskin fibroblasts assessed as tachyzoite growth inhibition after 5 days by colorimetric assay. It counts as functional, organism-based. As to conditions: 120 h.

Activity calls are given as the source filed them. No rule for the calls is given here.

As for `O=C1CS/C(=N/N=C\c2cccnc2)N1Cc1ccccc1`, in the data set on Toxoplasma gondii [1], the inhibition result is “Active”. The selectivity ratio in data set [2] worked out at 2. For the same compound, the CC50 at 120 h in data set [3] worked out at 239 µM. Also, in the data set on Toxoplasma gondii [4], the IC50 turned out to be 111 µM and the IC90 turned out to be 245 µM.

With `CCCCC/C(C)=N\N=C1/NC(=O)CS1`, the inhibition result in the data set with Toxoplasma gondii [1] is “Active”. For the same compound, the selectivity ratio in data set [2] turned out to be 3. In addition, in data set [3], the CC50 at 120 h amounted to 320 µM. In the data set on Toxoplasma gondii [4], the IC50 turned out to be 110 µM and the IC90 turned out to be 686 µM.

Turning to `COc1cc(Cc2cnc(N)nc2N)cc(OC)c1OC` [TRIMETHOPRIM], the inhibition result with Toxoplasma gondii [1] is “Active”. In data set [2], the selectivity ratio came out at 43. Further, in data set [3], the CC50 at 120 h is at least 320 µM. Moreover, in the data set on Toxoplasma gondii [4], the IC50 amounted to 13 µM and the IC90 stood at 73 µM.

In the case of `C/C(=N/N=C1\NC(=O)CS1)c1cccs1`, the inhibition entry with Toxoplasma gondii [1] is “Active”. For the same compound, the selectivity ratio in data set [2] was 9. Also, the CC50 at 120 h in data set [3] was at least 320 µM. In addition, in the data set with Toxoplasma gondii [4], the IC50 worked out at 64 µM and the IC90 came to 387 µM.

In the case of `C/C(=N/N=C1/SCC(=O)N1Cc1ccccc1)c1cccnc1`, the inhibition entry in the data set with Toxoplasma gondii [1] was “Active”. For the same compound, in data set [2], the selectivity ratio turned out to be 3. Further, the CC50 at 120 h in data set [3] amounted to 147 µM. Also, in the data set with Toxoplasma gondii [4], the IC50 is 82 µM and the IC90 came to 181 µM.

In the case of `O=C1CS/C(=N/N=C2CCCC2)N1Cc1ccccc1`, in the data set with Toxoplasma gondii [1], the inhibition entry is “Active”. Moreover, the selectivity ratio in data set [2] amounted to 5. Moreover, the CC50 at 120 h in data set [3] is at least 320 µM. Moreover, in the data set on Toxoplasma gondii [4], the IC50 is 105 µM and the IC90 worked out at 330 µM.

Regarding `O=C1CS/C(=N/N=C\c2cccs2)N1Cc1ccccc1`, the inhibition entry in the data set on Toxoplasma gondii [1] is “Active”. Further, the selectivity ratio in data set [2] is below 1. For the same compound, the CC50 at 120 h in data set [3] was 54 µM. In addition, in the data set on Toxoplasma gondii [4], the IC50 turned out to be 270 µM and the IC90 is 1660 µM.

Turning to `O=C1CS/C(=N/N=C2CCCCCC2)N1Cc1ccccc1`, the inhibition entry with Toxoplasma gondii [1] is “Active”. Besides, in data set [2], the selectivity ratio came out at 2. The CC50 at 120 h in data set [3] was at least 320 µM. In the data set with Toxoplasma gondii [4], the IC50 was determined as 255 µM and the IC90 worked out at 1530 µM.

With `C=CCC/C(C)=N\N=C1/NC(=O)CS1`, in the data set with Toxoplasma gondii [1], the inhibition entry was “Active”. For the same compound, in data set [2], the selectivity ratio came out at 3. The CC50 at 120 h in data set [3] is at least 320 µM. Moreover, in the data set on Toxoplasma gondii [4], the IC50 was 195 µM and the IC90 turned out to be 2220 µM.

`C/C(=N/N=C1/SCC(=O)N1Cc1ccccc1)c1ccccc1`: the inhibition result with Toxoplasma gondii [1] was “Active”. The selectivity ratio in data set [2] is 9. The CC50 at 120 h in data set [3] was at least 320 µM. Moreover, in the data set with Toxoplasma gondii [4], the IC50 was 61 µM and the IC90 was found to be 294 µM.

Regarding `CCC(CC)=N/N=C1\NC(=O)CS1`, the inhibition entry in the data set on Toxoplasma gondii [1] was “Active”. The selectivity ratio in data set [2] came out at 4. The CC50 at 120 h in data set [3] was at least 320 µM. In the data set on Toxoplasma gondii [4], the IC50 turned out to be 126 µM and the IC90 was found to be 580 µM.

For `C/C(=N\N=C1/NC(=O)CS1)c1ccncc1`, the inhibition entry in the data set with Toxoplasma gondii [1] is “Active”. In data set [2], the selectivity ratio is 11. For the same compound, in data set [3], the CC50 at 120 h is at least 320 µM. Also, in the data set on Toxoplasma gondii [4], the IC50 is 53 µM and the IC90 was found to be 401 µM.

Take `O=C1CS/C(=N/N=C2CCCCCCC2)N1Cc1ccccc1`: the inhibition entry in the data set on Toxoplasma gondii [1] was “Active”. Besides, in data set [2], the selectivity ratio was determined as 5. Also, the CC50 at 120 h in data set [3] came out at 205 µM. Moreover, in the data set on Toxoplasma gondii [4], the IC50 was 43 µM and the concentration for an effect of 90% (IC90) came out at 508 µM.

`C/C(=N/N=C1\NC(=O)CS1)c1ccc2ccccc2c1`: the inhibition result with Toxoplasma gondii [1] is “Active”. Moreover, the selectivity ratio in data set [2] stood at 10. In addition, in data set [3], the CC50 at 120 h is at least 320 µM. Moreover, in the data set on Toxoplasma gondii [4], the IC50 was 56 µM and the IC90 was 175 µM.

As to `CC1CCC(=N/N=C2/SCC(=O)N2Cc2ccccc2)CC1` (configuration not stated), in the data set on Toxoplasma gondii [1], the inhibition result was “Active”. In data set [2], the selectivity ratio is 3. In data set [3], the CC50 at 120 h came to 286 µM. For the same compound, in the data set on Toxoplasma gondii [4], the IC50 worked out at 88 µM and the IC90 was determined as 242 µM.

For the compound `CC(C)=N/N=C1/SCC(=O)N1Cc1ccccc1`, the inhibition result in the data set on Toxoplasma gondii [1] is “Active”. Moreover, in data set [2], the selectivity ratio was 2. The CC50 at 120 h in data set [3] is at least 320 µM. Moreover, in the data set on Toxoplasma gondii [4], the IC50 worked out at 232 µM and the IC90 was found to be 636 µM.

Consider `O=C1CS/C(=N/N=C\c2cccnc2)N1`, for which, in the data set with Toxoplasma gondii [1], the inhibition result is “Active”. In addition, in data set [2], the selectivity ratio came out at 11. The CC50 at 120 h in data set [3] is at least 320 µM. Moreover, in the data set on Toxoplasma gondii [4], the IC50 is 52 µM and the IC90 turned out to be 268 µM.

In the case of `CC(C)(C)C1CCCC/C1=N/N=C1\NC(=O)CS1` (configuration not stated), the inhibition entry with Toxoplasma gondii [1] was “Active”. Further, the selectivity ratio in data set [2] is 3. In addition, in data set [3], the CC50 at 120 h was at least 320 µM. Also, in the data set on Toxoplasma gondii [4], the IC50 turned out to be 218 µM and the 90% effect concentration (IC90) turned out to be 693 µM.

Consider `C/C(=N/N=C1/SCC(=O)N1Cc1ccccc1)C1CCCCC1`, for which the inhibition entry in the data set on Toxoplasma gondii [1] is “Active”. The selectivity ratio in data set [2] turned out to be 3. Besides, the CC50 at 120 h in data set [3] came to 60 µM. Besides, in the data set on Toxoplasma gondii [4], the IC50 turned out to be 24 µM and the IC90 was found to be 71 µM.

As for `C/C(=N/N=C1/SCC(=O)N1Cc1ccccc1)c1cc2ccccc2oc1=O`, the inhibition entry in the data set with Toxoplasma gondii [1] is “Active”. In addition, the CC50 at 120 h in data set [3] is at least 320 µM. Further, in the data set with Toxoplasma gondii [4], the IC50 was at least 320 µM.

`CCC/C(C)=N\N=C1/NC(=O)CS1`: the inhibition entry with Toxoplasma gondii [1] is “Active”. For the same compound, the selectivity ratio in data set [2] is 2. The CC50 at 120 h in data set [3] is at least 320 µM. For the same compound, in the data set on Toxoplasma gondii [4], the IC50 was 262 µM and the IC90 was 1060 µM.

For `O=C1CS/C(=N/N=C\c2c[nH]c3ccccc23)N1`, in the data set on Toxoplasma gondii [1], the inhibition result is “Active”. Moreover, in data set [2], the selectivity ratio was determined as 3. Further, in data set [3], the CC50 at 120 h is at least 320 µM. Moreover, in the data set on Toxoplasma gondii [4], the IC50 was found to be 166 µM and the IC90 turned out to be 474 µM.

Take `CCCCC/C(C)=N\N=C1\SCC(=O)N1Cc1ccccc1`: in the data set with Toxoplasma gondii [1], the inhibition entry is “Active”. Further, the selectivity ratio in data set [2] was found to be 5. The CC50 at 120 h in data set [3] was found to be 88 µM. In addition, in the data set on Toxoplasma gondii [4], the IC50 was found to be 19 µM and the concentration for an effect of 90% (IC90) was determined as 120 µM.

For `C/C(=N/N=C1\NC(=O)CS1)c1ccccn1`, the inhibition result in the data set on Toxoplasma gondii [1] is “Active”. Besides, the selectivity ratio in data set [2] came to 6. The CC50 at 120 h in data set [3] was determined as 16 µM. Moreover, in the data set on Toxoplasma gondii [4], the IC50 turned out to be 2.9 µM and the IC90 is 7 µM.

Take `CC1CCC/C1=N/N=C1/SCC(=O)N1Cc1ccccc1` (configuration not stated): in the data set with Toxoplasma gondii [1], the inhibition result was “Active”. Besides, the selectivity ratio in data set [2] amounted to 11. Moreover, the CC50 at 120 h in data set [3] was at least 320 µM. In the data set with Toxoplasma gondii [4], the IC50 was 53 µM and the IC90 is 329 µM.

On to `CC1CCC/C(=N/N=C2\NC(=O)CS2)C1` (configuration not stated), for which the inhibition entry with Toxoplasma gondii [1] was “Active”. Also, the selectivity ratio in data set [2] was determined as 6. Further, in data set [3], the CC50 at 120 h worked out at 202 µM. Also, in the data set on Toxoplasma gondii [4], the IC50 amounted to 36 µM and the IC90 was determined as 310 µM.

In the case of `O=C1CS/C(=N/N=C\c2ccco2)N1Cc1ccccc1`, the inhibition entry in the data set with Toxoplasma gondii [1] is “Active”. The selectivity ratio in data set [2] was 5. For the same compound, the CC50 at 120 h in data set [3] is at least 320 µM. For the same compound, in the data set on Toxoplasma gondii [4], the IC50 is 111 µM and the IC90 stood at 396 µM.

For `C/C(=N/N=C1/SCC(=O)N1Cc1ccccc1)c1ccccn1`, in the data set on Toxoplasma gondii [1], the inhibition entry is “Active”. Further, in data set [3], the CC50 at 120 h was at least 320 µM. Also, the IC50 in the data set with Toxoplasma gondii [4] was at least 320 µM.

Take `C/C(=N/N=C1\NC(=O)CS1)c1ccco1`: the inhibition result with Toxoplasma gondii [1] is “Active”. Moreover, the CC50 at 120 h in data set [3] was at least 320 µM. Besides, the IC50 with Toxoplasma gondii [4] is at least 320 µM.

Regarding `O=C1CS/C(=N/N=C\c2ccc3c(c2)OCO3)N1`, in the data set with Toxoplasma gondii [1], the inhibition entry is “Active”. Also, the CC50 at 120 h in data set [3] is at least 320 µM. Besides, the IC50 in the data set with Toxoplasma gondii [4] was at least 320 µM.
